From article PMC11863921 (BMC Biology, 2025)
Entries after “also recorded” stand apart in the source; their conditions may differ.

What was measured:
[1] = molecular target: T1, AsolRXFP/LGR3 (Acanthaster planci, UniProt A0A8B7XXQ8); experiment: CRE reporter gene assay in CHO cells stably expressing AsolRXFP/LGR3; format: cell-based, A. cf. solaris; settings: for cAMP activity / CRE reporter gene activation: increasing concentrations
T1 sequence (A0A8B7XXQ8 1-847): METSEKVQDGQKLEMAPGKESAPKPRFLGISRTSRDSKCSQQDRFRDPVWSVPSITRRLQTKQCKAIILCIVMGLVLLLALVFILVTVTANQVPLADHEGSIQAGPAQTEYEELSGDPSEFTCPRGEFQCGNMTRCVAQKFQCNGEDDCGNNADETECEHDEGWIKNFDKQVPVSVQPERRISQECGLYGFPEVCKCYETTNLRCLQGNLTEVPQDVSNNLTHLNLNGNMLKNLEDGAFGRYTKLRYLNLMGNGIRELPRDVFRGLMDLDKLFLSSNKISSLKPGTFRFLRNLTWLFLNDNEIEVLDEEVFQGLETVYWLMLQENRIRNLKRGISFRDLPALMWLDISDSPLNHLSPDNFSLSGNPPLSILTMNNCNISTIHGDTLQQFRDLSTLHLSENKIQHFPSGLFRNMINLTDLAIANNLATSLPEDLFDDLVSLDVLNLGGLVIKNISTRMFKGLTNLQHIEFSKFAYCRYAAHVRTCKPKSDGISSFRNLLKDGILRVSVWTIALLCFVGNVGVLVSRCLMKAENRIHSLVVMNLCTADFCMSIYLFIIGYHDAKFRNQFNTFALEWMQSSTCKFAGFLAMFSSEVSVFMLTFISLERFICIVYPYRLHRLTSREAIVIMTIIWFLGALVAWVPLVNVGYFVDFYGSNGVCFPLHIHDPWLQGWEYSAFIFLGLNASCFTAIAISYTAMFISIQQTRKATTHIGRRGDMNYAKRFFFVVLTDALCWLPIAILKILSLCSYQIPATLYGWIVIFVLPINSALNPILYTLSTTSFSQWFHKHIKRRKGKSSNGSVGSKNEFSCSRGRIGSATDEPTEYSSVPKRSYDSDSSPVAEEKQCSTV
Method: Human embryonic kidney (HEK) 293T cells were grown in complete Dulbecco’s modified Eagle medium (DMEM; Gibco) and Chinese hamster ovary (CHO) cells in complete DMEM/F12 (Gibco). Media was supplemented with 10% fetal bovine serum, 1% penicillin/streptomycin, and 1% L‐glutamine (complete media; All from Gibco). HEK-293T cells were transfected with LipofectAMINE 2000 (Invitrogen) and CHO cells with CHO TransIT and CHO-Mojo (Mirus), both according to the manufacturer’s instructions.
CHO and HEK293T cells stably expressing AsolRXFP/LGR3 were generated by lentiviral transduction. HEK293T cells were plated in 10 cm dishes for transfection with pLenti X1-Ef1α-COT-RXFP-like 2-IRES-GFP along with the lentiviral packaging and envelope plasmids pMDL, pRSV‐Rev, and pCMV‐VSV‐G, using Lipofectamine 2000. The following day, media containing lentivirus was harvested and filtered through a 0.45 μm syringe filter. Fresh CHO and HEK293T cells in 10 cm plates were transduced by replacing the cell culture media with the filtered media containing lentivirus, mixed with 4 μg/mL hexadimethrine bromide (Polybrene) to increase transduction efficiency. Three rounds of transduction were performed over 32 h, before cells were allowed to recover for three days in complete media. Transduced cells were sorted from non-transduced cells using the GFP reporter by fluorescence-activated cell sorting (FACS), using a Becton Dickinson FACSAria III as previously described. Single, live cells with low GFP expression were selected to represent low AsolRXFP/LGR3 expression and were subsequently grown to confluency in a T175 flask and cryopreserved.
The ability of the A. cf. solaris receptors to respond to A. cf. solaris RGP1 and RGP2 peptides was tested using a pCRE β-galactosidase reporter gene assay in CHO cells stably expressing AsolRXFP/LGR3 or HEK-293T cells transfected with AsolRXFP/LGR4 (long) or AsolRXFP/LGR4 (short), as described in detail previously. Importantly, the pCRE β-galactosidase reporter gene assay measures both Gs and Gq activation downstream of GPCR activation by monitoring CREB-mediated gene transcription. Cells were seeded in 96 well plates and were left to grow overnight at 37 °C in an incubator with 5% CO2. The next day the cells were transfected with different amounts of the pCRE reporter gene DNA [57] and/or pcDNA3.1 receptor constructs, as described above, and were left to grow overnight in an incubator. Triplicate wells in each plate were transfected with the equivalent amount of pCRE reporter gene DNA and pcDNA3.1 without a receptor-encoding insert as the background CRE activity control. The next day cells were exposed in triplicate wells to increasing concentrations of peptides diluted in media for 6 h at 37 °C in an incubator. Triplicate parallel wells contained 5 µM forskolin and blank media as positive and negative controls, respectively. At the end of the incubation period, the media was aspirated, and the plate was stored at − 80 °C until development. Plates were thawed for the development of β-galactosidase activity, as described previously, with absorbance being read at 570 nm on an Epoch 2 microplate reader. The data were analyzed as the percentage of the response induced by 5 µM forskolin and pooled followed by fitting to a three-parameter sigmoidal dose–response curve using GraphPad Prism 10. Experiments were performed at least three times with triplicate determinations in each assay (Additional file 17: Dataset S10).

[2] = system: ovarian fragments of A. cf. solaris; experiment: In vitro spawning assay with ovarian fragments of A. cf. solaris; settings: 1 h; for gonadotropic activity (shedding of mature eggs / spawning): 2 × 10^−10–2 × 10^−6 M, four separate assays
Excerpt: Adult A. cf. solaris were collected from the Great Barrier Reef by Pacific Marine Group divers associated with the Great Barrier Reef Marine Park Authority (GBRMPA) before being transported to the University of the Sunshine Coast aquarium facility. Animals were briefly maintained in a re-circulating protein-skimmed and aerated saltwater system of approximately 1500 L. The animals used were approximately 25–55 cm in diameter and kept unfed for the duration of the experiment. The gender and ovarian maturation stage was determined by using a minor gonad tissue biopsy technique and, thereafter, animals were individually segregated in a flowthrough aerated tank filled with approximately 55 L of filtered seawater for a minimum of 24 h to recover and acclimatize.
AsoRGP1 and AsoRGP2 were synthesized as described previously. In addition, a modified form of AsoRGP2 was synthesized in which the N-terminal residue of the A-chain (glutamine, Q) was substituted with pyroglutamate (pQ), recognizing the possibility of this potential post-translational modification. […] In vitro spawning assays using ovarian fragments were performed following procedures described previously. In brief, the ovaries were excised and cut using scissors into small fragments containing only a few lobes. The ovarian fragments were then incubated in artificial seawater containing RGP-type peptides at a range of concentrations (2 × 10^−10–2 × 10^−6 M) for 1 h. As a control experiment, ovarian fragments were incubated in artificial seawater alone. The samples were examined to determine whether or not in vitro spawning had occurred and were scored as follows: (+ + +) spawning occurred and most oocytes had matured; (+ +) about 50% of oocytes had matured, ( +) a few oocytes had matured and ( −): no spawning occurred. […] Means ± standard error of mean (SEM) were determined from four separate assays using ovaries from four different animals.

## Acanthaster cf. solaris Relaxin-like gonad-stimulating peptide 1 [AsolRGP1]
[1]; CHO-AsolRXFP/LGR3 cells, 5 µM forskolin = reference, n = 6
  efficacy (Emax): 38.6 ± 6.9 % forskolin response
[1]; CHO-AsolRXFP/LGR3 cells
  cAMP activity / CRE reporter gene activation: concentration-dependent cAMP activity; also recorded: dose-dependent increase in CRE reporter gene activation
[2]
  gonadotropic activity (shedding of mature eggs / spawning): exhibited gonadotropic activity; also recorded: dose-dependent induction of spawning

## Acanthaster cf. solaris Relaxin-like gonad-stimulating peptide 2 [AsolRGP2]
[1]; CHO-AsolRXFP/LGR3 cells
  cAMP activity / CRE reporter gene activation: only at high concentrations; also recorded: small but significant response but no clear dose–response
[1]; compared with RGP1
  relative potency/efficacy as ligand for AsolRXFP/LGR3: much lower than that of RGP1
[2]
  gonadotropic activity (shedding of mature eggs / spawning): exhibited gonadotropic activity; also recorded: dose-dependent induction of spawning
[2]; semi-quantitative, compared with RGP1 or unmodified RGP2
  relative potency in inducing shedding of mature eggs / spawning: slightly less potent than RGP1
